Measured values reported in US6323230A, “Use of nitrogen heterocyclic aromatic derivatives in the topical treatment of the epithelial tissues diseases” (Geange Ltd., priority 1997, dated 2001).

How the values were obtained:
[1] = Percutaneous absorption / systemically bioavailable dose from cream; type: in vivo; conditions: cream 0.05-0.1%
[2] = tested on: ulcerous cholitis (colon); experiment: Animal models of ulcerous cholitis; type: in vivo, Wistar rats; conditions: oral, daily, 1 mg/kg, in sesame oil 2 mg/mL
Method: Dealing with the activity of the compounds object of the present invention, on the inflammatory diseases of the low intestine, some compounds, namely V, VI, X and XI, were tested in animal models of ulcerous cholitis (Wallace J. L. et al., Eur. J. Pharmacol. 257, 249 (1994); Renter B. K. et al. J. Clin. Invest. 98, 2076-2085 (1996).
In particular, compound VI, when administered daily by oral route to Wistar rats, dissolved in sesame oil at the concentration of 2 mg/mL , at the dose of 1 mg/kg, did show a good activity in favouring colon ulcers repair, in re-establishing the normal thickness of the intestinal wall and in decreasing the granulocytes infiltration proper of an inflammatory condition.

Structure (SMILES)	maximum systemically bioavailable dose ([1]; about 50 g, whole body surface, 25-50 mg) [mg/kg]	Fa ([1]; in vivo, topical or ocular, of the applied dose) [%]	decreasing the granulocytes infiltration [2]	favouring colon ulcers repair [2]	re-establishing the normal thickness of the intestinal wall [2]
CCc1ccccc1-c1n[nH]c(-c2cccc(OC)c2)n1 [Compound XIII]	0.05 to 0.1	~10			
COc1cccc(-c2nc(-c3ccccc3CO)n[nH]2)c1 [VI]			good activity	good activity	good activity
